Measurements reported in patent US12153062B2, “Method for estimating physical property of aqueous sample” (Kao Corporation, priority 2018, dated 2024).
Blank lines part the entries; values can stand above or below the compound they belong to.

Tests used:
Format in all cases: physicochemical
[1] = Amount of phase-changing probe 2-EHDG required until phase structure changes (Wm phase to Om phase + W phase); liquid physical property index read from calibration curve
[2] = as above; settings: for Solution physical property index (corresponding HLB) from calibration curve: 100 mmol/kg
Description: (§1) Using the following components, precursor samples and standard samples for preparing calibration curves were prepared, and using any of the following phase-changing probes, an amount of the phase-changing probe required until a phase structure of a standard sample changed was quantified for each of a plurality of surfactants (G). The calibration curves were prepared from the plurality of quantitative values obtained. • Surfactant (G): a plurality of polyoxyethylene lauryl ethers with different average numbers of added moles of the ethylene oxide • Oil component: an isoparaffin with an average number of carbons of 16 (hereinafter, referred to as C16 isoparaffin) • Phase-changing probe: 2-ethylhexyl diglycol or butyldiglycol
(§2) The concentration of surfactant (G) in each precursor sample was 200 mmol/kg (the balance was water).
(§3) The amount of the oil component added per 100 g of each precursor sample was determined to be 4 g by assigning 50 to X in the aforementioned formula (I).
For this standard sample, 2-ethylhexyl diglycol (hereinafter, sometimes also referred to as 2-EHDG) was used as the phase-changing probe, and an amount of the phase-changing probe required until a phase structure of the standard sample changed from a micellar solution phase (Wm phase) to a mixed system of a reversed micellar oil solution phase (Om phase) and a water phase (W phase) was taken as the quantitative value.
(§4) Note that, in either case, the ambient temperature when the phase-changing probe was added to the standard sample was 25° C. Further, in either case, the phase-changing probe was added to the standard sample under the condition of being stirred with a magnetic stirrer.
(§5) Note that the quantitative values and HLB values were entered into spreadsheet software “Excel” (manufactured by Microsoft Corporation) to be processed, thereby obtaining the calibration curves as regression lines (calibration curves 1 and 2). Calibration curves 1 and 2 are shown in Graph A (FIG. 1).
As the oil components, components shown in Table 3 were used; as the phase-changing probe, 2-EHDG was used; and the concentration of surfactant (G) in each precursor sample was 100 mmol/kg. Note that, in this example, the amount of an oil component added per 100 g of each precursor sample was determined to be 2 g by assigning 50 to X in the aforementioned formula (I).
A measurement sample was prepared by adding 2 g of any of the oil components shown in Table 3 per 100 g of the aqueous sample.
2-EHDG as the phase-changing probe was added to the measurement sample under the same conditions as those for preparing the calibration curves, and an amount of the phase-changing probe required until a phase structure changed was quantified.

[3] = Amount of phase-changing probe BDG required until phase structure changes (Om phase + W phase to Wm phase); settings: surfactant 200 mmol/kg; C16 isoparaffin 4 g per 100 g; 25° C.; for calibration curve 2
Description: as §1, §2, §3
On the other hand, in the case where an average number of added moles of the ethylene oxide of surfactant (G) was relatively small (the average number of added moles was 2 to 5), the initial phase structure of the standard sample was a mixed system of a reversed micellar oil solution phase (Om phase) and a water phase (W phase). For this standard sample, butyldiglycol (hereinafter, sometimes also referred to as BDG) was used as the phase-changing probe, and an amount of the phase-changing probe required until a phase structure of the standard sample changed from a mixed system of a reversed micellar oil solution phase (Om phase) and a water phase (W phase) to a micellar solution phase (Wm phase) was taken as the quantitative value.
as §4, §5

[4] = surfactant 100 mmol/kg, solvent BDG 5 mass %, C16 isoparaffin 2 g per 100 g, 25° C., calibration curve 10, no inorganic salt
[5] = surfactant 100 mmol/kg, solvent BDG 5 mass %, C16 isoparaffin 2 g per 100 g, no inorganic salt
[6] = surfactant 100 mmol/kg, oil component C16 isoparaffin 2 g per 100 g, calibration curve 3
[7] = surfactant 100 mmol/kg, oil component Cyclohexane 2 g per 100 g, calibration curve 7
[8] = surfactant 100 mmol/kg, oil component Decane 2 g per 100 g, calibration curve 4
[9] = surfactant 100 mmol/kg, oil component Hexadecane 2 g per 100 g, calibration curve 6
[10] = surfactant 100 mmol/kg, oil component Tetradecane 2 g per 100 g, calibration curve 5
[11] = surfactant 200 mmol/kg, C16 isoparaffin 4 g per 100 g, 25° C., for calibration curve 1
[12] = concentration of polyoxyethylene lauryl ether 5 mmol/kg, C16 isoparaffin 0.1 g per 100 g, calibration curve 8
[13] = concentration of polyoxyethylene lauryl ether 350 mmol/kg, C16 isoparaffin 7 g per 100 g, calibration curve 9

Compound: CCCCCCCCCCCC[N+](C)(C)Cc1ccccc1.[Cl-] [Lauryldimethylbenzylammonium chloride]
Quantitative value (g) of phase-changing probe (2-EHDG) [1, 4]: 10.36 g | Solution physical property index (corresponding HLB) from calibration curve 10 [1, 5]: 13.97

Compound: CCCCCCCCCCCC[N+](C)(C)C.[Cl-] [Lauryltrimethylammonium chloride]
Quantitative value (g) of phase-changing probe (2-EHDG) [1, 4]: 11.04 g | Solution physical property index (corresponding HLB) from calibration curve 10 [1, 5]: 14.25

Quantitative value (g) of phase-changing probe (2-EHDG) [1, 4]: 4.72 g | Solution physical property index (corresponding HLB) from calibration curve 10 [1, 5]: 11.60
Compound: CCCCCCCCCCCCCC[N+](C)(C)[O-] [Myristyl dimethylamine oxide]

Compound: CCCCCCCCCCCC[N+](C)(C)CC(O)CS(=O)(=O)[O-] (stereo not drawn) [N-lauryl-N,N-dimethyl-N-(2-hydroxysulfopropyl)ammonium sulfobetaine]
Solution physical property index (corresponding HLB) from calibration curve ([2]; oil component C16 isoparaffin, calibration curve 3): 11.46 | Solution physical property index (corresponding HLB) from calibration curve ([2]; oil component Decane, calibration curve 4): 11.52 | Solution physical property index (corresponding HLB) from calibration curve ([2]; oil component Hexadecane, calibration curve 6): 11.44 | Solution physical property index (corresponding HLB) from calibration curve ([2]; oil component Tetradecane, calibration curve 5): 11.47 | Quantitative value (g) of phase-changing probe (2-EHDG) [2, 6]: 2.36 g | Quantitative value (g) of phase-changing probe (2-EHDG) [2, 7]: 1.15 g | Quantitative value (g) of phase-changing probe (2-EHDG) [2, 8]: 2.36 g | Quantitative value (g) of phase-changing probe (2-EHDG) [2, 9]: 2.78 g | Quantitative value (g) of phase-changing probe (2-EHDG) [2, 10]: 2.66 g | Quantitative value (g) of phase-changing probe (2-EHDG) [1, 4]: 3.60 g

Compound: CCCCCCCC[N+](C)(C)Cc1ccccc1.[Cl-] [Octyldimethylbenzylammonium chloride]
Quantitative value (g) of phase-changing probe (2-EHDG) [1, 4]: 9.20 g | Solution physical property index (corresponding HLB) from calibration curve 10 [1, 5]: 13.48

Compound: CCCCCCCCCCCCCCCC[N+](C)(C)C.[Cl-] [Palmityltrimethylammonium chloride]
Quantitative value (g) of phase-changing probe (2-EHDG) [1, 4]: 9.12 g | Solution physical property index (corresponding HLB) from calibration curve 10 [1, 5]: 13.45

Compound: CCCCC(CC)COC(=O)CC(C(=O)OCC(CC)CCCC)S(=O)(=O)[O-].[Na+] (stereo not drawn) [Sodium di-2-ethylhexylsulfosuccinate]
Quantitative value (g) of phase-changing probe (2-EHDG) [1, 4]: 5.50 g | Solution physical property index (corresponding HLB) from calibration curve 10 [1, 5]: 11.93

Quantitative value (g) of phase-changing probe (2-EHDG) [1, 4]: 4.44 g | Solution physical property index (corresponding HLB) from calibration curve 10 [1, 5]: 11.48
Compound: Lauryl glucoside

Compound: Sodium polyoxyethylene (2 moles on average) lauryl ether sulfate
Quantitative value (g) of phase-changing probe (2-EHDG) [1, 4]: 17.68 g | Solution physical property index (corresponding HLB) from calibration curve 10 [1, 5]: 17.04

Compound: Sodium polyoxyethylene (4 moles on average) lauryl ether sulfate
Quantitative value (g) of phase-changing probe (2-EHDG) [1, 4]: 19.88 g | Solution physical property index (corresponding HLB) from calibration curve 10 [1, 5]: 17.96

Compound: polyoxyethylene (6 moles on average) lauryl ether [Polyoxyethylene lauryl ether 6]
Quantitative value (g) of phase-changing probe (2-EHDG) [2, 6]: 2.96 g | Quantitative value (g) of phase-changing probe (2-EHDG) [2, 7]: 1.96 g | Quantitative value (g) of phase-changing probe (2-EHDG) [2, 8]: 2.78 g | Quantitative value (g) of phase-changing probe (2-EHDG) [2, 9]: 3.4 g | Quantitative value (g) of phase-changing probe (2-EHDG) [2, 10]: 3.2 g | Quantitative value (g) of phase-changing probe (2-EHDG) [2, 11]: 1.7 g | Quantitative value (g) of phase-changing probe (2-EHDG) [1, 12]: 0.24 g | Quantitative value (g) of phase-changing probe (2-EHDG) [1, 13]: 2.44 g | Quantitative value (g) of phase-changing probe (2-EHDG) [1, 4]: 4.76 g

Quantitative value (g) of phase-changing probe (BDG) [3]: 18.57 g
Compound: polyoxyethylene lauryl ether [Polyoxyethylene lauryl ether 2]

Quantitative value (g) of phase-changing probe (BDG) [3]: 13.2 g
Compound: polyoxyethylene lauryl ether [Polyoxyethylene lauryl ether 3]

Quantitative value (g) of phase-changing probe (BDG) [3]: 7.29 g | Quantitative value (g) of phase-changing probe (2-EHDG) [1, 4]: 1.16 g
Compound: polyoxyethylene lauryl ether [Polyoxyethylene lauryl ether 4]

Quantitative value (g) of phase-changing probe (BDG) [3]: 5.5 g | Quantitative value (g) of phase-changing probe (2-EHDG) [1, 4]: 2.12 g
Compound: polyoxyethylene lauryl ether [Polyoxyethylene lauryl ether 5]

Compound: polyoxyethylene lauryl ether [Polyoxyethylene lauryl ether 9]
Quantitative value (g) of phase-changing probe (2-EHDG) [2, 6]: 7.58 g | Quantitative value (g) of phase-changing probe (2-EHDG) [2, 7]: 5.84 g | Quantitative value (g) of phase-changing probe (2-EHDG) [2, 8]: 6.98 g | Quantitative value (g) of phase-changing probe (2-EHDG) [2, 9]: 7.74 g | Quantitative value (g) of phase-changing probe (2-EHDG) [2, 10]: 7.6 g | Quantitative value (g) of phase-changing probe (2-EHDG) [2, 11]: 5.38 g | Quantitative value (g) of phase-changing probe (2-EHDG) [1, 12]: 0.46 g | Quantitative value (g) of phase-changing probe (2-EHDG) [1, 13]: 9.36 g | Quantitative value (g) of phase-changing probe (2-EHDG) [1, 4]: 9.46 g

Compound: polyoxyethylene lauryl ether [Polyoxyethylene lauryl ether 12]
Quantitative value (g) of phase-changing probe (2-EHDG) [2, 6]: 10.24 g | Quantitative value (g) of phase-changing probe (2-EHDG) [2, 7]: 8.24 g | Quantitative value (g) of phase-changing probe (2-EHDG) [2, 8]: 9.4 g | Quantitative value (g) of phase-changing probe (2-EHDG) [2, 9]: 10.24 g | Quantitative value (g) of phase-changing probe (2-EHDG) [2, 10]: 10.02 g | Quantitative value (g) of phase-changing probe (2-EHDG) [2, 11]: 7.4 g | Quantitative value (g) of phase-changing probe (2-EHDG) [1, 12]: 0.94 g | Quantitative value (g) of phase-changing probe (2-EHDG) [1, 13]: 11.76 g | Quantitative value (g) of phase-changing probe (2-EHDG) [1, 4]: 12.5 g

Quantitative value (g) of phase-changing probe (2-EHDG) [2, 11]: 11.92 g | Quantitative value (g) of phase-changing probe (2-EHDG) [1, 12]: 1.28 g
Compound: polyoxyethylene lauryl ether [Polyoxyethylene lauryl ether 21]
